The values below come from EP1075277B2, “METHODS FOR DETECTING AND INHIBITING ANGIOGENESIS” (The Regents of the University of California, priority 1998, dated 2012).

“Also recorded” adds a separate entry of the source.

Experiment [1] relates to integrin α5β1 positive cells, including α5β1 HT29 colon carcinoma cells, CEF's, and HUVEC's. Kind of experiment: Cell adhesion assay on fibronectin, results in words for the α5β1 positive cells together. The format is cell-based. The note with it: antibodies 50 µg/ml, cyclic peptides 10 µM, SJ749 0-10 µM. The source says:
(§1) HT29 integrin α5β1 cells, integrin α5β1 colon carcinoma cells (Varner et al., Mol. Biol. Cell 6:725-740 (1995)), and chick embryo fibroblasts (CEF's) were maintained in DMEM high glucose supplemented with 10% fetal bovine serum (FBS) and gentamycin. Human umbilical vein endothelial cells (HWEC's) were maintained in M199 medium containing sodium bicarbonate, HEPES, heparin, endothelial cell growth supplement, 20% FBS and gentamycin. Culture media and reagents were from Irvine Scientific (Irvine, CA).
(§2) The wells of 48 well culture dishes (Costar, Inc.) were coated with 1 µg/ml vitronectin, 2 µg/ml fibronectin (chick embryo fibroblasts and HUVEC's) or 10 µg/ml fibronectin (HT29-α5^+ cells) for 1 hr at 37°C, then blocked with 2% heat denatured BSA in PBS for 1 hr. […]
(§3) Cells were allowed to adhere to dishes for 20 min at 37°C. […] Crystal violet was extracted by incubation for 15 min in 10% acetic acid and absorbance at 562 nm determined as an indicator of number of cells bound. […]

For experiment [2], the system named is α5β1 HT29 colon carcinoma cells, CEF's, and HUVEC's. Nature of the experiment: Cell adhesion assay on vitronectin. The format is cell-based. As to conditions: 1 µg/ml vitronectin coat.
Text: as §1, §2, §3

In experiment [3] the test system is blood vessel branch points in chorioallantoic membranes (CAM's). Nature of the experiment: In ovo chick chorioallantoic membrane (CAM) angiogenesis assay. As to conditions: for effect on bFGF-induced angiogenesis (in words): bFGF stimulated CAM. Format: in vivo. The source says:
Ten day old embryonated chicken eggs (McIntyre Poultry; Ramona CA) were candled to illuminate blood vessels under the shell and an area with a minimum of small blood vessels is identified. The CAM was dropped away from the eggshell in this area by grinding a small hole in the mineralized shell and applying pressure to the underlying inner shell membrane. This procedure caused an air pocket to shift from the wide end of the egg to the identified area and forcing a circular region of the CAM approximately 2 cm in diameter to drop away from the shell. A window was cut in the egg shell and a cortisone acetate pre-treated filter disc 5 mm in diameter that had been saturated in 1 µg/ml bFGF, VEGF, TNFα, IL-8 (Genzyme, Inc.; Cambridge MA) or saline was placed on the CAM. The window in the shell was sealed with adhesive tape and the egg was incubated for four days.
Anti-fibronectin antibodies (25 µg in 25 µl) also were applied topically to the CAM.
Fibronectin, vitronectin and fibronectin fragments (59 pmol in a final volume of 25 µl) were applied to stimulated or unstimulated CAM's. Peptide or small molecule antagonists of α5β1 (at a final serum concentration of 0-25 µM) also were injected intravenously into the chick circulation 24 hr later. CAM's were harvested on the fourth day of stimulation. Blood vessel branch points in the 5 mm filter disk area were counted at 30 X magnification in a blinded fashion as a size-independent quantitative indicator of vascular sprouting in response to growth factors. Angiogenesis is characterized by the sprouting of new vessels in response to growth factors. Thus, counting of blood vessel branch points is a useful quantitative means of obtaining an angiogenic index (Brooks et al., In "Methods in Molecular Biology" (Humana Press 1999). At least ten embryos were used per treatment group. Each experiment was performed a minimum of three times.
Data was evaluated in terms of average number of blood vessel branch points per treatment group +/- standard error of measurement. Statistical analyses were performed using Student's t-test. […]

For a further experiment, the system named is α5^+ HT29 cells. Nature of the experiment: Cell adhesion assay on fibronectin, HT29-α5+ cells. Format: cell-based. The note with it: Homo sapiens, HT-29, 0-10 µM SJ749, Figure 1, read-out: half maximal inhibitory concentration, adhesion to fibronectin.
Text: as §1, §2, §3

A further experiment relates to HUVEC's. Kind of experiment: Cell migration assay (transwell). Format: cell-based, human. As to conditions: 4 hr at 37°C. The procedure: The Lower side of 8 µm pore transwell inserts (Costar, Inc.) were coated with 2 µg/ml of fibronectin, collagen (Collaborative Biomedical Products; Bedford MA) or no protein for 1 hr and were blocked with 2% BSA in PBS for 1 hr. The inserts then were placed into 24 well culture dishes containing 500 µl migration buffer in the lower chamber. Twenty-five thousand HUVEC's in 50 µl of migration buffer (HEPES buffered M199 medium containing 1% BSA, 2 mM MgCl2, 2 mM CaCl2 and 0.2 mM MnCl2) were added to the upper chamber of duplicate inserts containing 50 µl of a solution of 50 µg/ml of anti-α5β1 function blocking antibody (NKI-SAM-1, JBS5 or IIA1), 50 µ/ml of anti-α5β1 non-function blocking antibody (HA5 or VC5), or 50 µg/ml of LM609 (an anti-αVβ3 function blocking antibody) in migration buffer, or migration buffer alone.
Cells were allowed to migrate from the upper to the lower chamber for 4 hr at 37°C. Nonmigratory cells were removed from the upper surface by wiping the upper side with an absorbant tip, and cells that had migrated to the lower side of the transwell insert were fixed for 15 min with 3.7% paraformaldehyde in PBS, then stained with a 2% crystal violet solution. After extensive water washing to remove excess crystal violet, the number of cells that had migrated were counted in three representative high power (200X) fields per insert. […]

Experiment [4] concerns the target T1, α5β1 receptor purified from human placenta (Homo sapiens, UniProt P05556+P08648).
T1 construct: α5β1 receptor purified from human placenta; purchased Chemicon International; host or cells: human placenta (tissue-purified)
Kind of experiment: Integrin receptor ligand binding assay, α5β1 / fibronectin. As to conditions: biotinylated fibronectin. The procedure:
(§4) Integrin αVβ3 and α5β1 receptor purified from human placenta were obtained from Chemicon International. Platelet integrin αIIbβ3 was purified from platelets according to established procedures. Receptors were coated (100 µl/well) on Costar (3590) high capacity binding plates overnight at 4°C. Coating solution was discarded and plates were washed once with blocking/binding (B/B) buffer (50 mM Tris HCl, pH 7.4, 100 mM NaCl, 2mM CaCl2, 1 mM MgCl2, 1 mM MnCl2 and 1% BSA).
(§5) One hundred ten microliters of B/B buffer was applied for 60 min at RT. Thirty µl of biotinylated extracellular matrix protein ligand (fibronectin for integrin α5β1, vitronectin for integrin αVβ3 and fibrinogen for integrin αIIbβ3) plus 50 µl of either SJ749 in B/B buffer or B/B buffer alone were added to each well, and incubated for 25 min at RT. Plates were washed twice with B/B buffer and incubated 1 hr at RT, with anti-biotin alkaline phosphatase (100 µl/well) in B/B buffer. Finally, plates were washed twice with B/B followed by the addition of 100 µl of phosphatase substrate (1.5 mg/ml). Reaction was stopped by adding 2N NaOH (25 µl/well), and the developed color was read at 405 nm.

For another experiment, the target named is T2, Integrin αVβ3 (Homo sapiens, UniProt P05106+P06756).
T2 construct: Integrin αVβ3 and α5β1 receptor purified from human placenta; purchased Chemicon International; host or cells: human placenta (tissue-purified, as the sentence is read)
T2 sequence (P06756 31-889 limits assumed): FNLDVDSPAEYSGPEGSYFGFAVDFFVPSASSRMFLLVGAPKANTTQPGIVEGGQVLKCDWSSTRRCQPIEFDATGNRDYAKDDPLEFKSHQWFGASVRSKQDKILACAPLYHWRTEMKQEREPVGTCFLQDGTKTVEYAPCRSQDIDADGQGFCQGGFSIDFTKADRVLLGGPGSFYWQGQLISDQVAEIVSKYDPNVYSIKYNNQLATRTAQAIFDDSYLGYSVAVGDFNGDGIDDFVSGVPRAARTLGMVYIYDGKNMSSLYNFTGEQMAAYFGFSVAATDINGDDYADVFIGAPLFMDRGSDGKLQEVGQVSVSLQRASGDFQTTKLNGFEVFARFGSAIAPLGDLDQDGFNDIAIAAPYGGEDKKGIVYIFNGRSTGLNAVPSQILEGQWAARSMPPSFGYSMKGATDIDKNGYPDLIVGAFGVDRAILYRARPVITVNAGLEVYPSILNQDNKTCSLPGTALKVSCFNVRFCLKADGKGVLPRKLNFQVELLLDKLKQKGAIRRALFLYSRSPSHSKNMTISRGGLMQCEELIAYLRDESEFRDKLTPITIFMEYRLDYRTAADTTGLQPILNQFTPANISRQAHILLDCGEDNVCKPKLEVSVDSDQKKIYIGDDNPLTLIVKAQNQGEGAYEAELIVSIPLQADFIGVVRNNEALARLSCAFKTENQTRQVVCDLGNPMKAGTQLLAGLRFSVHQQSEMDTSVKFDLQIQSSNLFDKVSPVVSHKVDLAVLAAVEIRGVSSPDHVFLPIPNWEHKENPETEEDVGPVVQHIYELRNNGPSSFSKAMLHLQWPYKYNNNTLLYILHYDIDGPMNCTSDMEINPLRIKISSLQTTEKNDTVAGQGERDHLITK
T2 sequence (P06756 891-1048 partner limits assumed): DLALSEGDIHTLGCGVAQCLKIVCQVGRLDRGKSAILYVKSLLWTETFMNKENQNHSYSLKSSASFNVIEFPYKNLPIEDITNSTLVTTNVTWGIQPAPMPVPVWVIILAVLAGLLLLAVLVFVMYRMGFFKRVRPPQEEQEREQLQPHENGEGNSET
T2 sequence (P05106 27-788): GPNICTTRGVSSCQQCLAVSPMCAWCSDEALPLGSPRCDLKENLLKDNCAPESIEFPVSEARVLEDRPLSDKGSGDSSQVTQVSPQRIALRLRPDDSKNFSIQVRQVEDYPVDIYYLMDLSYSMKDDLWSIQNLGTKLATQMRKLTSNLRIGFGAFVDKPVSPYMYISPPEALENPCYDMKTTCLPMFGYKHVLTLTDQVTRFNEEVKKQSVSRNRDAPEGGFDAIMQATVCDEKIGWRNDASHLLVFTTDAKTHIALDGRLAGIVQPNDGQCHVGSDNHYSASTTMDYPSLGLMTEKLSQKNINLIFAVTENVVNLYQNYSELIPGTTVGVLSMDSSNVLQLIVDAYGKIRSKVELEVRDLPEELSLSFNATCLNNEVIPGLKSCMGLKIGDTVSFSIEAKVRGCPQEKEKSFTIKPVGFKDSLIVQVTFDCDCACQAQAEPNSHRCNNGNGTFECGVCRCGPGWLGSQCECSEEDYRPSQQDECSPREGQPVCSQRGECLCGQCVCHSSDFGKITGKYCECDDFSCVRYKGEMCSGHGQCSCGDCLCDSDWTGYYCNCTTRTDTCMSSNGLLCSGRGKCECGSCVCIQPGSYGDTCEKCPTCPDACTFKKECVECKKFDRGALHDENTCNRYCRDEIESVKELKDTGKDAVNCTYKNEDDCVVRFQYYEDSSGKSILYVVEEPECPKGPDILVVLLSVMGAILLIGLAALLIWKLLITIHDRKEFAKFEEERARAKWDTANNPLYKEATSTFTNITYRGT
Kind of experiment: Integrin receptor ligand binding assay, αVβ3 / vitronectin. The note with it: biotinylated vitronectin for αVβ3. The procedure: as §4, §5

The subject of experiment [5] is HT29 colon carcinoma cells lacking α5β1 expression. Nature of the experiment: Chick CAM tumor assay, HT29. The format is in vivo. The note with it: antibody 25 µg topically; for effect on tumor size (in words): peptide or small molecule 25 µM intravenously. The procedure: The chick CAM tumor assay was performed by placing ten million tumor cells on the surface of a CAM, and culturing the cells for one week. The resulting tumors were excised and cut into 50 mg fragments. […] Forty-eight hours later, CAM's were excised from the egg and the number of blood vessels entering the tumors were counted (as vessel branch points) .
Data was presented as mean blood vessel number per treatment group (+/- standard error of measurement). Each treatment group incorporated at least ten tumors per experiment. Representative tumors were photographed at 10X magnification. Tumors were excised from the egg and tumor weights were determined for each tumor. Data was presented as mean tumor weight per treatment group (+/- standard error of measurement). Statistical analyses were performed using Student's t-test.
HT29 colon carcinoma cells lacking α5β1 expression were grown on the CAM's of 10-day old embryos. These tumor cells secrete several angiogenic growth factors, including VEGF, TGFα, TGFβ, TNFα, and IL-8 (Anzano et al., Cancer Res. 49:2898-2904 (1989); Varner et. al., supra, 1995; Ellis et al., J. Biol. Chem. 273:1052-1057 (1998)). Integrin α5β1 negative tumor cells were used to distinguish the potential anti-tumor effects from anti-vasculature effects of integrin α5β1 antagonists.

T1 sequence (P08648 42-894 limits assumed): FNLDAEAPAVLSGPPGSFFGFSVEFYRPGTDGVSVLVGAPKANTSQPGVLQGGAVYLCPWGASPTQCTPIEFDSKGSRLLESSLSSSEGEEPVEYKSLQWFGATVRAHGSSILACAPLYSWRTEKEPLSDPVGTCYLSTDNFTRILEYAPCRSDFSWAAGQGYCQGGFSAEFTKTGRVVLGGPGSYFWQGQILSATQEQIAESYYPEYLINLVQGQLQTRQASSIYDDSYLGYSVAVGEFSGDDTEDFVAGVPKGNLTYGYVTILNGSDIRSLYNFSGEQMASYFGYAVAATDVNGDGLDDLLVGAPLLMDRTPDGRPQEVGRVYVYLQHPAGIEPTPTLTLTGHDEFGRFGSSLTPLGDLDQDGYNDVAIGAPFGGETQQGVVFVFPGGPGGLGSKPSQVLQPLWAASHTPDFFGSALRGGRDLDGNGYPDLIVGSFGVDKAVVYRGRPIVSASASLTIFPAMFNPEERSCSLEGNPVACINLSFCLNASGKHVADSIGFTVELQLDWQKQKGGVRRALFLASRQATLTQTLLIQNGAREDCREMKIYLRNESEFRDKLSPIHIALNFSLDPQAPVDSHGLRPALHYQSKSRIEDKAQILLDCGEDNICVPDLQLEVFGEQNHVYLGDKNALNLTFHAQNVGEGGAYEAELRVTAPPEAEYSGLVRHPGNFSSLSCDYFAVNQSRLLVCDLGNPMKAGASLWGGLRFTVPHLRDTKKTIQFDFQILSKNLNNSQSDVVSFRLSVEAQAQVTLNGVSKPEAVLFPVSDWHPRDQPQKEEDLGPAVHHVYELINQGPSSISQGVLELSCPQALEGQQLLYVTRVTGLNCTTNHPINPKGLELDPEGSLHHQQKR
T1 sequence (P08648 895-1049 partner limits assumed): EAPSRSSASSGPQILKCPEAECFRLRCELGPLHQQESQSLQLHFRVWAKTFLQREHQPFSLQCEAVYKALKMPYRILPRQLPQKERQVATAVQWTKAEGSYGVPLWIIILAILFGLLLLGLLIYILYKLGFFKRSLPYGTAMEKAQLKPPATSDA
T1 sequence (P05556 21-798): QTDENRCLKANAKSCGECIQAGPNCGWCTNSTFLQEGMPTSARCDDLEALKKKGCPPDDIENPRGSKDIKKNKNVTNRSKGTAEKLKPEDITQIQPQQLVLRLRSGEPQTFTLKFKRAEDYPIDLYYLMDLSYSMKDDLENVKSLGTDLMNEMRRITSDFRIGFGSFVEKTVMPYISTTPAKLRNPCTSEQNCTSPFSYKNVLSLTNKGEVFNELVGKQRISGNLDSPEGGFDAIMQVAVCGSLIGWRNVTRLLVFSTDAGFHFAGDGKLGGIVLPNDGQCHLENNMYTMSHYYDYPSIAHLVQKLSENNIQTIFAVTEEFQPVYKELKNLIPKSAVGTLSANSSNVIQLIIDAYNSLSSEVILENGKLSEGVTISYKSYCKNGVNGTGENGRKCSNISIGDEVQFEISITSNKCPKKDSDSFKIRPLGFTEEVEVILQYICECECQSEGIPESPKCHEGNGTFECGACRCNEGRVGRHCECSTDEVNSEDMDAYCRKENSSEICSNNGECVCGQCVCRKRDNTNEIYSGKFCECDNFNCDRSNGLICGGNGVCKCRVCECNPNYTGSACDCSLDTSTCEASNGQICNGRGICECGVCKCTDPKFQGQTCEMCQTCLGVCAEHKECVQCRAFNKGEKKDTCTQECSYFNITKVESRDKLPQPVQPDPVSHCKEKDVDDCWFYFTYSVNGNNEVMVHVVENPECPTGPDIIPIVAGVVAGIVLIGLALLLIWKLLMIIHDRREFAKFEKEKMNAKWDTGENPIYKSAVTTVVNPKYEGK

Turning to `Cc1cc(C)c(S(=O)(=O)N[C@@H](CNC(=O)C2=NOC3(C2)CC(CNc2ccccn2)N(C(=O)OCc2ccccc2)C3)C(=O)O)c(C)c1` (stereo partly drawn) [SJ749], in experiment [1], the “effect on cell adhesion to fibronectin (in words)” value is given as “blocked the adhesion of these cells to fibronectin in a concentration-dependent manner; also recorded: inhibitory effect”. Besides, the “effect on cell attachment to vitronectin (in words)” value in experiment [2] is listed as “ineffective in blocking cell attachment to vitronectin or other extracellular matrix ligands”. Moreover, the “effect on VEGF-induced angiogenesis (in words)” value in experiment [3] (VEGF stimulated CAM) is “did not block VEGF angiogenesis”. Further, the “effect on bFGF-induced angiogenesis (in words)” value in experiment [3] is given as “blocked bFGF-induced angiogenesis on chick CAM's in a dose-dependent manner when applied either topically or systemically; also recorded: dose dependent inhibitory effect; also recorded: reduced or inhibited angiogenesis in a dose dependent manner”. In the experiment with α5^+ HT29 cells, the IC50 amounted to 800 nM. For the same compound, in the experiment on HUVEC's, the “effect on endothelial cell migration on fibronectin (in words)” value was “highly effective in blocking endothelial cell migration on fibronectin” and the “effect on endothelial cell migration on other matrix proteins, including collagen (in words)” value is given as “but not on other matrix proteins such as collagen”. Moreover, the “effect on ligand binding to α5β1 (in words)” value in experiment [4] was “selectively inhibited ligand binding to α5β1; also recorded: interfered with α5β1 binding to fibronectin”. Besides, the “effect on ligand binding to αVβ3 and other integrins (in words)” value at Integrin αVβ3 is “substantially less effective in blocking ligand binding to αVβ3 and other integrins”. In addition, the “tumors smaller than control treated tumors” value in experiment [5] (peptide or SJ749 25 µM final serum concentration intravenously) came to 51%. Further, in experiment [5], the “effect on tumor size (in words)” value is reported as “induced tumor regression on the CAM”.

With CATAERWRC, the “effect on cell adhesion to fibronectin (in words)” value in experiment [1] was “little effect on cell adhesion to either fibronectin or vitronectin”. For the same compound, the “effect on cell attachment to vitronectin (in words)” value in experiment [2] is on record as “little effect on cell adhesion to either fibronectin or vitronectin”. Also, the “effect on bFGF-induced angiogenesis (in words)” value in experiment [3] is listed as “did not inhibit angiogenesis”. Moreover, the “effect on tumor size (in words)” value in experiment [5] was “continued to increase in size”.
